Experimental data from patent publication US10562909B2, “Fused quadracyclic compounds, compositions and uses thereof” (Tabomedex Biosciences, LLC, priority 2016, dated 2020).

target: MAPKAPK2 (Homo sapiens, UniProt P49137); test: MK2 Enzymatic Assay; type: biochemical; details: 0.5 nM MAPKAPK2, 3 μM ATP, 2 μM Ser/Thr4 peptide, 23° C., values given as concentration bins
Protocol: Briefly, 5 μL of 2× (4 μM) 100% phosphorylation peptide was delivered into the control wells of a 384-well assay plate. 5 μL of 2× (1 nM) MAPKAPK2 and 2× peptide (4 μM) mixture in assay buffer was dispensed to remaining columns of assay plate using Eppendorf electronic multiple channel pipette. The assay plate was incubated for 20 minutes. 5 μL of 2× ATP (6 μM) in assay buffer was dispensed to each well and then the assay plate was lightly centrifuged. The assay plate was incubated for an additional 120 minutes.
5 μL of development reagent A was dispensed to all wells using Eppendorf electronic multiple channel pipette. After incubating the development reaction for 120 min, plates were read on a Perkin Elmer Envision instrument.
Percent phosphorylation was calculated using the following formula:
[formula] Where • C100%=Average Coumarin emission signal of the 100% Phos. Control • C0%=Average Coumarin emission signal of the 0% Phos. Control • F100%=Average Fluorescein emission signal of the 100% Phos. Control • F0%=Average Flurescein emission signal of the 0% Phos. Control

Sequence of MAPKAPK2 (P49137 whole entry, species assumed): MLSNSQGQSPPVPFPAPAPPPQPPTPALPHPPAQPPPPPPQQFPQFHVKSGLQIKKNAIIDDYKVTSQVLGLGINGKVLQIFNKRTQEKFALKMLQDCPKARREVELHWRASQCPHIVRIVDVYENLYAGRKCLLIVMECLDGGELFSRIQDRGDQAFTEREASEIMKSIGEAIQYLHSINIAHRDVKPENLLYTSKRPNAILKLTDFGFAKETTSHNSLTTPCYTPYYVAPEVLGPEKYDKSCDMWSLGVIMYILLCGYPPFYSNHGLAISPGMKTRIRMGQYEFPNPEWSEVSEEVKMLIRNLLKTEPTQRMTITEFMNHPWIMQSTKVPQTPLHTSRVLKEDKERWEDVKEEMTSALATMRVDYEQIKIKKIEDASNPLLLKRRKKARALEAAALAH

First: N#Cc1ccc(-c2cc3n(c2Cl)Cc2cc(N4CC[C@H](CN)C4)ccc2-n2cnnc2-3)cc1 [Compound 171, (R)-4-(7-(3-(aminomethyl)pyrrolidin-1-yl)-11-chloro-9H-benzo[e]pyrrolo[1,2-a][1,2,4]tri-azolo[3,4-c][1,4]diazepin-12-yl)benzonitrile]
Second: CNC[C@H]1CN(c2ccc3c(c2)Cn2cc(-c4ccc(C#N)cc4)cc2-c2nncn2-3)C[C@@H]1O (relative stereo) [Compound 72, 4-(7-(trans-3-hydroxy-4-((methylamino)methyl)pyrrolidin-1-yl)-9H-benzo[e]pyrrolo[1,2-a][1,2,4]triazolo[3,4-c][1,4]diazepin-12-yl)benzonitrile]
The IC50 of the first is higher: 50 to 100 nM for the first, < 50 nM for the second.

`CNCC1CN(c2ccc3c(c2)Cn2cc(-c4ccc(F)cc4)cc2-c2nnnn2-3)C1` [Compound 386, 1-(1-(12-(4-fluorophenyl)-9H-benzo[e]pyrrolo[1,2-a]tetrazolo[5,1-c][1,4]diazepin-7-yl)azetidin-3-yl)-N-methylmethanamine] and `CNC[C@H]1CN(c2ccc3c(c2)Cn2cc(-c4ccc(F)cc4)cc2-c2ncnn2-3)C[C@H]1F` [Compound 497, 1-((3S,4S)-4-fluoro-1-(12-(4-fluorophenyl)-9H-benzo[e]pyrrolo[1,2-a][1,2,4]triazolo[5,1-c] [1,4]diazepin-7-yl)pyrrolidin-3-yl)-N-methylmethanamine] cannot be ordered by IC50: < 50 nM for the first, < 50 nM for the second.

`O[C@H]1CN(c2ccc3c(c2)Cn2cc(-c4ccc(F)cc4)cc2-c2nccn2-3)C[C@@H]1CNC1CC1` [Compound 473, (3R,4S)-4-((cyclopropylamino)methyl)-1-(12-(4-fluorophenyl)-9H-benzo[e]imidazo[2,1-c]pyrrolo[1,2-a][1,4]diazepin-7-yl)pyrrolidin-3-ol] and `CNC[C@@H]1CN(c2ccc3c(c2)Cn2cc(-c4ccc(F)cc4)cc2-c2nccn2-3)C[C@@H]1O` [Compound 483, (3R,4R)-1-(12-(4-fluorophenyl)-9H-benzo[e]imidazo[2,1-c]pyrrolo[1,2-a][1,4]diazepin-7-yl)-4-((methylamino)methyl)pyrrolidin-3-ol] cannot be ordered by IC50: < 50 nM for the first, < 50 nM for the second.

`N#Cc1ccc(-c2cc3n(c2)Cc2cc(N4CC[C@@H](CN5CCC(O)CC5)C4)ccc2-n2ccnc2-3)cc1` [Compound 142, (S)-4-(7-(3-((4-hydroxypiperidin-1-yl)methyl)pyrrolidin-1-yl)-9H-benzo[e]imidazo[2,1-c]pyrrolo[1,2-a][1,4]diazepin-12-yl)benzonitrile] and `CN(C)[C@H]1CN(c2ccc3c(c2)Cn2cc(-c4ccc(C#N)cc4)cc2-c2nccn2-3)C[C@@H]1O` [Compound 131, 4-(7-((3S,4S)-3-(dimethylamino)-4-hydroxypyrrolidin-1-yl)-9H-benzo[e]imidazo[2,1-c]pyrrolo[1,2-a][1,4]diazepin-12-yl)benzonitrile] cannot be ordered by IC50: < 50 nM for the first, < 50 nM for the second.

`CN(C)C[C@H]1CN(c2ccc3c(c2)Cn2cc(-c4ccc(C#N)cc4)cc2-c2nncn2-3)C[C@H]1O` (relative stereo) [Compound 75, 4-(7-(Cis-3-((dimethylamino)methyl)-4-hydroxypyrrolidin-1-yl)-9H-benzo[e]pyrrolo[1,2-a] [1,2,4]triazolo[3,4-c][1,4]diazepin-12-yl)benzonitrile] and `CN(C)C[C@H]1CCN(c2ccc3c(c2)Cn2cc(-c4ccc(C#N)cc4)cc2-c2ncnn2-3)C1` [Compound 255, (R)-4-(7-(3-((dimethylamino)methyl)pyrrolidin-1-yl)-9H-benzo[e]pyrrolo[1,2-a][1,2,4]riazolo[5,1-c][1,4]diazepin-12-yl)benzonitrile] cannot be ordered by IC50: < 50 nM for the first, < 50 nM for the second.

`C[C@H](CO)NC[C@H]1CCN(c2ccc3c(c2)Cn2cc(-c4ccc(F)cc4)cc2-c2ncnn2-3)C1` [Compound 420, (R)-2-((((R)-1-(12-(4-fluorophenyl)-9H-benzo[e]pyrrolo[1,2-a][1,2,4]triazolo[5,1-c][1,4]diazepin-7-yl)pyrrolidin-3-yl)methyl)amino)propan-1-ol] and `C[C@H](CO)NC[C@@H]1CCN(c2ccc3c(c2)Cn2cc(-c4ccc(F)cc4)cc2-c2nccn2-3)C1` [Compound 354, (R)-2-((((S)-1-(12-(4-fluorophenyl)-9H-benzo[e]imidazo[2,1-c]pyrrolo[1,2-a][1,4]diazepin-7-yl)pyrrolidin-3-yl)methyl)amino)propan-1-ol] cannot be ordered by IC50: < 50 nM for the first, < 50 nM for the second.

First: CC(C)(NCC1CCN(c2ccc3c(c2)Cn2cc(-c4ccc(F)cc4)cc2-c2nccn2-3)C1)C(=O)O (stereo not drawn) [Compound 479, 2-(((1-(12-(4-fluorophenyl)-9H-benzo[e]imidazo[2,1-c]pyrrolo[1,2-a][1,4]diazepin-7-yl)pyrrolidin-3-yl)methyl)amino)-2-methylpropanoic acid]
Second: CN(C)C[C@@H]1CN(c2ccc3c(c2)Cn2cc(-c4ccc(F)cc4)cc2-c2nccn2-3)C[C@@H]1F [Compound 475, 1-((3R,4R)-4-fluoro-1-(12-(4-fluorophenyl)-9H-benzo[e]imidazo[2,1-c]pyrrolo[1,2-a][1,4]diazepin-7-yl)pyrrolidin-3-yl)-N,N-dimethylmethanamine]
The IC50 of the first is higher: 100 to 200 nM for the first, < 50 nM for the second.

`CN(C)[C@@H]1CCN(c2ccc3c(c2)Cn2cc(-c4ccc(F)cc4)cc2-c2ncnn2-3)C1` [Compound 426, (R)-1-(12-(4-fluorophenyl)-9H-benzo[e]pyrrolo[1,2-a][1,2,4]triazolo[5,1-c][1,4]diazepin-7-yl)-N,N-dimethylpyrrolidin-3-amine] and `CN(C)[C@@H]1CN(c2ccc3c(c2)Cn2cc(-c4ccc(F)cc4)cc2-c2ncnn2-3)C[C@H]1O` [Compound 417, (3R,4R)-4-(dimethylamino)-1-(12-(4-fluorophenyl)-9H-benzo[e]pyrrolo[1,2-a][1,2,4]triazolo[5,1-c][1,4]diazepin-7-yl)pyrrolidin-3-ol] fall in the same range of IC50: 50 to 100 nM for the first, 50 to 100 nM for the second.

`OC1CN(c2ccc3c(c2)Cn2cc(-c4ccc(F)cc4)cc2-c2nccn2-3)CC1CN1CCC1` (single isomer, unassigned) [Compound 468] and `Fc1ccc(-c2cc3n(c2)Cc2nc(N4CCC5(CNC5)C4)ccc2-n2ccnc2-3)cc1` [Compound 440, 12-(4-fluorophenyl)-7-(2,6-diazaspiro[3.4]octan-6-yl)-9H-imidazo[2,1-c]pyrido[3,2-e] pyrrolo[1,2-a][1,4]diazepine] cannot be ordered by IC50: < 50 nM for the first, < 50 nM for the second.

Compared with `CN(C)[C@@H]1CN(c2ccc3c(n2)Cn2cc(-c4ccc(C#N)cc4)cc2-c2nccn2-3)C[C@@H]1O` [Compound 303, 4-(7-((3R,4S)-3-(dimethylamino)-4-hydroxypyrrolidin-1-yl)-9H-imidazo[2,1-c]pyrido[3,2-e]pyrrolo[1,2-a][1,4]diazepin-12-yl)benzonitrile], `CN(C)[C@H]1CCN(c2ccc3c(c2)Cn2cc(-c4ccc(F)cc4F)cc2-c2nncn2-3)C1` [Compound 449, (S)-1-(12-(2,4-difluorophenyl)-9H-benzo[e]pyrrolo[1,2-a][1,2,4]triazolo[3,4-c][1,4]diazepin-7-yl)-N,N-dimethylpyrrolidin-3-amine] is higher in IC50: 50 to 100 nM for the first, 100 to 200 nM for the second. The first is the more potent here.

For `CN1CC2(CCN(c3ccc4c(c3)Cn3cc(-c5ccc(F)cc5)cc3-c3nnnn3-4)C2)C1` [Compound 392, 12-(4-fluorophenyl)-7-(2-methyl-2,6-diazaspiro[3.4]octan-6-yl)-9H-benzo[e]pyrrolo[1,2-a] tetrazolo[5,1-c][1,4]diazepine], the IC50 was < 50 nM.
